Results from US20230019280A1, “SUBSTITUTED ISOINDOLONYL 2,2'-BIP[…], ANALOGUES THEREOF, AND METHODS USING SAME” (priority 2019, published 2023).
Where two headings read alike, the source gives them in different places.

System: HBsAg
Test: HBsAg assay (inhibition of HBsAg in HepG2.2.15 cells)
Type: cell-based, hepatitis B virus
Conditions: supernatant HBsAg by CLIA at day 6 after exposure of compounds
Procedure: Inhibition of HBsAg was determined in HepG2.2.15 cells. Cells were maintained in culture medium containing 10% fetal calf serum, […], Glutamine, penicillin/streptomycin. Cells were seeded in 96-well collagen-coated plate at a density of 30,000 cells/well. Serially diluted compounds were added to cells next day at the final DMSO concentration of 0.5%. Cells were incubated with compounds for 2-3 days, after which medium was removed. Fresh medium containing compounds was added to cells for additional 3-4 days. At day 6 after exposure of compounds, supernatant was collected, the HBsAg immunoassay (microplate-based chemiluminescence immunoassay kits, CLIA, Autobio Diagnosics Co., Zhengzhou, China, Catalog #CL0310-2) was used to determine the level of HBsAg according to manufactory instruction. Dose-response curves were generated and the EC50 value (effective concentrations that achieved 50% inhibitory effect) were determined using XLfit software. In addition, cells were seeded at a density of 5,000 cells/well for determination of cell viability in the presence and absence of compounds by using CellTiter-Glo reagent (Promega).

COc1cc2c(cc1OC)C(c1ccccc1)N(c1nc(-c3ncccn3)ncc1F)C2=O (single isomer, unassigned) [Example 71, 2-(5-Fluoro-[2,2′-bipyrimidin]-4-yl)-5,6-dimethoxy-3-phenylisoindolin-1-one]
EC50 (read-out: sAg EC50, HepG2.2.15 cells): 1000 nM

CCOc1cc2c(cc1F)C(CC)N(c1nc(-c3ncccn3)ncc1F)C2=O (single isomer, unassigned) [Example 56, 6-Ethoxy-3-ethyl-5-fluoro-2-(5-fluoro-[2,2′-bipyrimidin]-4-yl)isoindolin-1-one]
EC50 (Hepatitis B virus, HepG2.2.15, 144 h, read-out: sAg EC50, HepG2.2.15 cells): 70 nM
